Earlier results on three compounds are cited in patent publication US20210319872A1, “DRUG AND DEVICE COMBINATION PRODUCTS WITH IMPROVED SAFETY AND EFFICACY PROFILES” (priority 2016, published 2021).

Read-outs that look alike come from different tables or passages of the source.

As to Contrave, where the note is “in vivo”, the Amnesia result is on record as “Neurologic: Amnesia (Less than 2%), Seizure (0.1%)”; the Anxiety result is on record as “Psychiatric: Anxiety (4.2%)”; the Cholecystitis result is on record as “Gastrointestinal: Cholecystitis (Less than 2%), Hematochezia (Less”; the Constipation result is on record as “Gastrointestinal: Constipation (19.2%), Diarrhea (7.1%), Nausea”. Also, under “in vivo”, the Depression entry is on record as “Psychiatric: Depression (6.3% to 7.1%), Mania, Psychiatric”; the Diarrhea entry was “Gastrointestinal: Constipation (19.2%), Diarrhea (7.1%), Nausea”; the Dizziness result is given as “Neurologic: Dizziness (9.9%), Headache (17.6%), Insomnia (9.2%)”; the Erythema multiforme result is “Dermatologic: Erythema multiforme (Rare), Stevens-Johnson”. Also, where the note is “in vivo”, the Headache entry is given as “Neurologic: Dizziness (9.9%), Headache (17.6%), Insomnia (9.2%)”; the Hypertension result is “Cardiovascular: Hypertension (3.2%), Increased heart rate,”; the “Infectious disorder of kidney” value was “Renal: Infectious disorder of kidney (Less than 2%), Serum”; the Insomnia result is “Neurologic: Dizziness (9.9%), Headache (17.6%), Insomnia (9.2%)”. Also, under “in vivo”, the Intervertebral disc prolapse entry is “Musculoskeletal: Intervertebral disc prolapse (Less than 2%)”; the Myocardial infarction entry is reported as “Myocardial infarction (Less than 2%)”; the Nausea entry is recorded as “(32.5%), Vomiting (10.7%), Xerostomia (8.1%)”; the Pneumonia entry was “Respiratory: Pneumonia (Less than 2%)”. For the same compound, under “in vivo”, the Seizure entry is “Neurologic: Amnesia (Less than 2%), Seizure (0.1%)”; the “Serious side effect, Cardiovascular” value is on record as “Cardiovascular: Hypertension (3.2%), Increased heart rate,”; the “Serious side effect, Endocrine metabolic” value is on record as “Endocrine metabolic: Hypoglycemia”; the “Serious side effect, Hepatic” value is reported as “Hepatic: Hepatotoxicity”. Besides, for the setting “in vivo”, the “Serious side effect, Immunologic” value is given as “Immunologic: Anaphylaxis, Delayed hypersensitivity disorder”; the “Serious side effect, Ophthalmic” value is recorded as “Ophthalmic: Angle-closure glaucoma”; the “Serious side effect, Psychiatric” value is listed as “Psychiatric: Depression (6.3% to 7.1%), Mania, Psychiatric”; the Serum creatinine raised entry was “creatinine raised (Less than 2%)”. Moreover, for the setting “in vivo”, the Stevens-Johnson syndrome entry is listed as “syndrome (Rare)”; the Suicidal thoughts entry is on record as “symptom, Suicidal thoughts (0.03%)”; the Vomiting entry is listed as “(32.5%), Vomiting (10.7%), Xerostomia (8.1%)”; the Xerostomia result is “(32.5%), Vomiting (10.7%), Xerostomia (8.1%)”.
Regarding `COc1ccccc1Oc1c(NS(=O)(=O)c2ccc(C(C)(C)C)cc2)nc(-c2ncccn2)nc1OCCO` [Tracleer], for the setting “in vivo”, the Decreased hemoglobin entry is recorded as “Hematologic: Decreased hemoglobin (6%)”, the “Decreased hemoglobin (Severe)” value is listed as “Hematologic: Decreased hemoglobin (Severe) (3%)”, the Headache entry is reported as “Neurologic: Headache (up to 24%)” and the Hypotension is given as 7%. Where the note is “in vivo”, the “Increased liver aminotransferase level” value was at most 11% and the Palpitations is 5%. Also, for the setting “listed without frequency”, the “Serious side effect, Other” value was “Other: Angioedema”.
`CC(CCc1ccccc1)NCC(O)c1ccc(O)c(C(N)=O)c1.Cl` (stereo not drawn): where the note is “in vivo”, the Dizziness result is “Neurologic: Dizziness (9% to 20%)”, the Fatigue entry is given as “Other: Fatigue (11%)”, the Has tingling sensation result is recorded as “Dermatologic: Has tingling sensation (7%.)” and the Nasal congestion result is “Respiratory: Nasal congestion (3%)”. For the same compound, the Nausea result (in vivo) is “Gastrointestinal: Nausea (14%)”. In addition, the Orthostatic hypotension result (in vivo, iv) is “Cardiovascular: Orthostatic hypotension (1%, oral; 58%, IV)”. Further, the Orthostatic hypotension entry (in vivo, po) is listed as “Cardiovascular: Orthostatic hypotension (1%, oral; 58%, IV)”.
